Test results: patent US20240092784A1, “CONDENSED HETEROCYCLIC COMPOUND” (NISSAN CHEMICAL CORPORATION, priority 2020, published 2024)

Target: human SPR (Homo sapiens (Human), UniProt P35270)
Assay: Evaluation Example 2: Measurement of human SPR inhibitory activity (seven concentrations, sepiapterin absorbance at 420 nm)
Type: biochemical
Settings: Evaluation Example 2, seven concentrations 0.14 nM to 100 nM, 240 minutes at room temperature, read-out: IC50
Procedure, shortened: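 Reactions ran 240 min at room temperature in 100 mM Tris-HCl pH 7.5 with 0.01% BSA. They contained tag-cleaved, E. coli-expressed full-length human SPR (diluted to 150 ng/mL), seven compound concentrations from 0.14 to 100 nM, and sepiapterin/NADPH added as a 120 μM/160 μM solution. Inhibition was calculated from sepiapterin absorbance at 420 nm.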

Chain of human SPR (P35270 whole entry): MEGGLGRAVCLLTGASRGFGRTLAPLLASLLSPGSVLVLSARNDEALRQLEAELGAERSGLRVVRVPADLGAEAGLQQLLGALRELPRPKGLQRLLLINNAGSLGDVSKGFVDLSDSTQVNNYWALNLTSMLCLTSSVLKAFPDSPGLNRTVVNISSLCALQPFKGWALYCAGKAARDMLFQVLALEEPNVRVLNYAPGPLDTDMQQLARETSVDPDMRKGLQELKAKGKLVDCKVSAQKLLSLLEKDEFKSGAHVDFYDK

SMILES | IC50 [pM]
Cc1nn2c(O)c(C(=O)NC3CC3)c(=O)n(CC(C)C)c2c1/C=C/C(=O)N1[C@H](C)COC[C@H]1C [compound 576, N-Cyclopropyl-3-((E)-3-((3R,5R)-3,5-dimethylmorpholino)-3-oxoprop-1-en-1-yl)-7-hydroxy-4-isobutyl-2-methyl-5-oxo-4,5-dihydropyrazolo[1,5-a]pyrimidine-6-carboxamide] | 860
CO[C@H]1CCN(C(=O)/C=C/c2c(C)nn3c(O)c(C(=O)NC4CC4)c(=O)n(CC(C)C)c23)C1 [compound 577, (S,E)-N-Cyclopropyl-7-hydroxy-4-isobutyl-3-(3-(3-methoxypyrrolidin-1-yl)-3-oxoprop-1-en-1-yl)-2-methyl-5-oxo-4,5-dihydropyrazolo[1,5-a]pyrimidine-6-carboxamide] | 1100
CO[C@@H]1CCN(C(=O)/C=C/c2c(C)nn3c(O)c(C(=O)NC4CC4)c(=O)n(CC(C)C)c23)C1 [compound 578, (R,E)-N-Cyclopropyl-7-hydroxy-4-isobutyl-3-(3-(3-methoxypyrrolidin-1-yl)-3-oxoprop-1-en-1-yl)-2-methyl-5-oxo-4,5-dihydropyrazolo[1,5-a]pyrimidine-6-carboxamide] | 900
Cc1nn2c(O)c(C(=O)NC3CC3)c(=O)n(CC(C)C)c2c1/C=C/C(=O)N1CCC(F)(F)CC1 [compound 579, (E)-N-Cyclopropyl-3-(3-(4,4-difluoropiperidin-1-yl)-3-oxoprop-1-en-1-yl)-7-hydroxy-4-isobutyl-2-methyl-5-oxo-4,5-dihydropyrazolo[1,5-a]pyrimidine-6-carboxamide] | 870
Cc1nn2c(O)c(C(=O)NC3CC3)c(=O)n(CC(C)C)c2c1/C=C/C(=O)N1CCC[C@@H]1C [compound 580, (S,E)-N-Cyclopropyl-7-hydroxy-4-isobutyl-2-methyl-3-(3-(2-methylpyrrolidin-1-yl)-3-oxoprop-1-en-1-yl)-5-oxo-4,5-dihydropyrazolo[1,5-a]pyrimidine-6-carboxamide] | 960
Cc1nn2c(O)c(C(=O)NC3CC3)c(=O)n(CC(C)C)c2c1/C=C/C(=O)N1CCC[C@H]1C [compound 581, (R,E)-N-Cyclopropyl-7-hydroxy-4-isobutyl-2-methyl-3-(3-(2-methylpyrrolidin-1-yl)-3-oxoprop-1-en-1-yl)-5-oxo-4,5-dihydropyrazolo[1,5-a]pyrimidine-6-carboxamide] | 1090
Cc1nn2c(O)c(C(=O)NC3CC3)c(=O)n(CC(C)(C)C)c2c1/C=C/C(=O)N1CCOCC1 [compound 582, (E)-N-Cyclopropyl-7-hydroxy-2-methyl-3-(3-morpholino-3-oxoprop-1-en-1-yl)-4-neopentyl-5-oxo-4,5-dihydropyrazolo[1,5-a]pyrimidine-6-carboxamide] | 630
Cc1nn2c(O)c(C(=O)NC3CC3)c(=O)n(CC(C)(C)C)c2c1/C=C/C1CCOCC1 [compound 584, (E)-N-Cyclopropyl-7-hydroxy-2-methyl-4-neopentyl-5-oxo-3-(2-(tetrahydro-2H-pyran-4-yl)vinyl)-4,5-dihydropyrazolo[1,5-a]pyrimidine-6-carboxamide] | 1200
CNc1nn2c(O)c(C(=O)NC3CC3)c(=O)n(CC3(C)CCOCC3)c2c1/C=C/C1CCOCC1 [compound 585, (E)-N-Cyclopropyl-7-hydroxy-2-(methylamino)-4-((4-methyltetrahydro-2H-pyran-4-yl)methyl)-5-oxo-3-(2-(tetrahydro-2H-pyran-4-yl)vinyl)-4,5-dihydropyrazolo[1,5-a]pyrimidine-6-carboxamide] | 1230
CCc1nn2c(O)c(C(=O)NC3CC3)c(=O)n(CC(C)C)c2c1/C=C/C(=O)N1CCOCC1 [compound 586, (E)-N-Cyclopropyl-2-ethyl-7-hydroxy-4-isobutyl-3-(3-morpholino-3-oxoprop-1-en-1-yl)-5-oxo-4,5-dihydropyrazolo[1,5-a]pyrimidine-6-carboxamide] | 990
